The text below walks through data of patent US20150315188A1, “COMPOUNDS AND METHODS FOR TREATMENT OF HYPERTENSION” (MEDIVATION TECHNOLOGIES, INC., priority 2012, published 2015).

Each structure is given as a SMILES string.

The target of test [1] is T1, Human adrenergic α2A receptor (Homo sapiens, UniProt P08913).
T1 sequence (P08913 1-465): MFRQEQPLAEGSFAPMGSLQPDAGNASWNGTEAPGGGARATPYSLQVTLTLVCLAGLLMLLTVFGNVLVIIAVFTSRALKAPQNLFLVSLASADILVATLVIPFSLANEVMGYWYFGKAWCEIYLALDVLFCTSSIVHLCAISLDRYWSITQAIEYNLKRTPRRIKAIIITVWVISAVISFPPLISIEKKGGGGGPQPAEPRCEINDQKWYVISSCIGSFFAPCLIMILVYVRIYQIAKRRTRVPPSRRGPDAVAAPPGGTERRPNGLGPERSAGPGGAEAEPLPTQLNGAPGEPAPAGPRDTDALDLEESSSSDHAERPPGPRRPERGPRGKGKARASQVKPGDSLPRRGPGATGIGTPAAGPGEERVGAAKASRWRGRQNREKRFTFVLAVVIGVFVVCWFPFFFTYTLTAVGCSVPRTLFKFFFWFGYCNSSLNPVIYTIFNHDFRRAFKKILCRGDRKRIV
The test can be described thus: β-Arrestin GPCR functional assay, adrenergic α2A (Protocol B). It is filed as cell-based. The conditions noted are these: for IC50: β-arrestin, antagonist vs nor-epinephrine EC80. As to the method:
To evaluate the activity of compounds in β-Arrestin GPCR functional assays, recombinant CHO cell line (DiscoveRX), over expressed with human adrenergic α2A receptor were used. The experiment was done with kit of DiscoveRX as per recommended protocol of the supplier. Cells were harvested from culture flask using cell dissociation solution (CDS) and plated at a density of 12,000 cells/well in CP reagent (supplied with the kit) in a half area 96-well white polystyrene plate. After 24 h incubation at 37° C., compounds at various concentrations in 1% (final) DMSO were charged to the cells for 30 min at 37° C. Active nor-epinephrine (-NE) at its EC80 concentrations (270 nM) were then added to the cells and incubated for another 90 min at 37° C. Detection mix was prepared by mixing of Path Hunter cell assay buffer, Emerald II solution and Galactone star solution in a ratio of 19:5:1 and incubated with the cells for 60 min at RT in the dark. The reading was taken in Envision at luminescence mode. Biochemical assay results are presented as the percent Inhibition in Table B2a, or IC50 values in Table B2b.

Test [2] addresses T1, Human adrenergic α2A receptor. As to the kind of experiment: Radioligand binding, adrenergic α2A (Protocol Group B). The arrangement: purchased Milipore (Millipore). The conditions noted are these: for Percentage inhibition of ligand binding, Adrenergic α2A (0.1 μM) / inhibition at 0.1 µM: 0.1 μM compound; for Percentage inhibition of ligand binding, Adrenergic α2A (0.1 μM) / inhibition at 0.3 µM / Ki / inhibition at 0.1 µM / Percentage inhibition of ligand binding, Adrenergic α2A (0.3 μM): Protocol Group B; for inhibition at 0.3 µM / Percentage inhibition of ligand binding, Adrenergic α2A (0.3 μM): 0.3 μM compound; for inhibition at 0.3 µM: read-out: Percentage inhibition of ligand binding, Adrenergic α2A (0.3 μM); for Ki: estimated Ki; for inhibition at 0.1 µM: read-out: Percentage inhibition of ligand binding, Adrenergic α2A (0.1 μM). The procedure, abridged: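 Membranes from recombinant cells expressing the receptor, in 50 mM Tris-HCl pH 7.4 with 5 mM MgCl2, 1 mM CaCl2, 0.2% BSA; compounds incubated with 2 nM [^3H]MK-912 for 60 min at 25° C. Nonspecific binding defined by 10 μM rauwolscine; filtration, counting; percent inhibition of specific binding, or estimated Ki.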

By IC50 is commonly meant the midpoint of a concentration-inhibition curve. Usually inhibition stands for how much of the control response was suppressed. In general, Ki refers to a measure of affinity in units of concentration, obtained from inhibition or displacement. For the compound `Cc1cc(F)cc2c3c(n(CC(O)c4ccncc4)c12)CCN1CCCC31` (single isomer, unassigned) [136a], half-maximal inhibition in test [1] (IC50) required 896 nM. Besides, in test [2], the “Percentage inhibition of ligand binding, Adrenergic α2A (0.1 μM)” value (shortened to “Percentage inhibition … (0.1 μM)”) was found to be 69%; the inhibition at 0.3 µM was determined as 87%; the Ki was 14.4 nM.
As for `Cc1ccc2c(c1)c1c(n2CC(O)c2ccncc2)CC[N+]2([O-])CCCC12` (centres unmarked) [compound 23, 7-(2-hydroxy-2-(pyridin-4-yl)ethyl)-10-methyl-1,2,3,4,5,6,7,11c-octahydroindolizino[7,8-b]indole 4-oxide], the inhibition at 0.1 µM was 1% in test [1] (0.1 μM compound, nor-epinephrine at EC80 (270 nM), read-out: Percentage inhibition, Adrenergic α2A) and 55% in test [2]. Further, the inhibition at 0.3 µM in test [1] (0.3 μM compound, nor-epinephrine at EC80 (270 nM), read-out: Percentage inhibition, Adrenergic α2A) was 1%; in test [2] it was 64%. Also, the inhibition at 0.0032 µM in test [2] (3.2 nM compound, concentration series, read-out: Percentage inhibition of ligand binding, Adrenergic α2A, 3.2 nM) worked out at 14%. Further, in test [2] (10 nM compound, concentration series, read-out: Percentage inhibition of ligand binding, Adrenergic α2A, 10 nM), the inhibition at 0.01 µM amounted to 21%. The inhibition at 0.03 µM in test [2] (0.03 μM compound, concentration series, read-out: Percentage inhibition of ligand binding, Adrenergic α2A, 0.03 μM) was found to be 37%. The inhibition at 0.32 µM in test [2] (0.32 μM compound, concentration series, read-out: Percentage inhibition of ligand binding, Adrenergic α2A, 0.32 μM) turned out to be 67%. Further, the inhibition at 1 µM in test [2] (1 μM compound, concentration series, read-out: Percentage inhibition of ligand binding, Adrenergic α2A, 1 μM) is 76%. Further, in test [2] (3.2 μM compound, concentration series, read-out: Percentage inhibition of ligand binding, Adrenergic α2A, 3.2 μM), the inhibition at 3.2 µM worked out at 88%. In addition, in test [2] (10 μM compound, concentration series, read-out: Percentage inhibition of ligand binding, Adrenergic α2A, 10 μM), the inhibition at 10 µM is 92%. The inhibition constant (Ki) in test [2] is 20.8 nM.
For the compound `Cc1cc(F)c2c(c1)c1c(n2CC(O)c2ccncc2)CCN2CCCC12` (single isomer, unassigned) [137a], the IC50 in test [1] was found to be 5100 nM. In test [2], the “Percentage inhibition … (0.1 μM)” value stood at 56%; the “Percentage inhibition of ligand binding, Adrenergic α2A (0.3 μM)” value (from here on “Percentage inhibition … (0.3 μM)”) worked out at 79%; the Ki is 43.6 nM.
On to `Cc1ccc2c(c1)c1c(n2CC(O)c2ccncc2)CCN2CCCC12` (single isomer, unassigned) [Compound No. 178d], for which, in test [2], the “Percentage inhibition … (0.1 μM)” value turned out to be 96% and the inhibition at 0.1 µM was 90%.
In test [1], `CCOC(Cn1c2c(c3cc(C)ccc31)CN(C)CC2)c1ccncc1` (single isomer, unassigned) [43b] yielded a half-maximal inhibitory concentration (IC50) of 7340 nM. In test [2], the “Percentage inhibition … (0.1 μM)” value stood at 14%; the “Percentage inhibition … (0.3 μM)” value is reported as 28%; the Ki is 374 nM.
Take `Cc1cc(C)c2c(c1)c1c(n2CC(C)(O)c2cccnc2)CCN2CCCC12` (single isomer, unassigned) [44a]: 5180 nM corresponded to half-maximal inhibition in test [1] (IC50). Further, in test [2], the “Percentage inhibition … (0.1 μM)” value was 47%; the “Percentage inhibition … (0.3 μM)” value is given as 70%; the Ki was 114 nM.
`Cc1cc(F)c2c(c1)c1c(n2CC(C)(O)c2cccnc2)CCN2CCCC12` (single isomer, unassigned) [79b] yielded an IC50 in test [1] of 2670 nM. Also, in test [2], the inhibition at 0.1 µM came out at 55%, the inhibition at 0.3 µM is 74% and the inhibition constant Ki is 47.6 nM.
In the case of `Cc1ccc2c(c1)c1c(n2CC(OC(=O)N2CCCC2)c2ccncc2)CCN(C)C1` (single isomer, unassigned) [4b], the IC50 in test [1] is 6080 nM. Also, the inhibitory constant (Ki) in test [2] is 126 nM.
For `Cc1ccc2c(c1)c1c(n2CC(C)(O)c2ccc(F)nc2)CCN2CCCC12` (single isomer, unassigned) [6a], in that order: 1790 nM and 55 nM.
In test [1], `CCOC(Cn1c2c(c3cc(C)ccc31)CN(C)CC2)c1ccncc1` (single isomer, unassigned) [43a] returned an IC50 of 3570 nM. In test [2], the “Percentage inhibition … (0.1 μM)” value was determined as 46%; the “Percentage inhibition … (0.3 μM)” value was 63%; the inhibitory constant (Ki) is 50 nM.
`Cc1ccc2c(c1)c1c(n2CC(OCC2CCC2)c2ccncc2)CCN2CCCC12` (single isomer, unassigned) [138b] gave an IC50 in test [1] of 1330 nM. For the same compound, in test [2], the “Percentage inhibition … (0.1 μM)” value is on record as 82%; the “Percentage inhibition … (0.3 μM)” value is reported as 84%; the Ki was 9.9 nM.
Take `Cc1ccc2c(c1)c1c(n2C[C@@H](OC2CCCC2)c2ccncc2)CCN2CCC[C@H]12` [compound 82, (11cR)-7-[(25)-2-(cyclopentoxy)-2-(4-pyridyl)ethyl]-10-methyl-1,2,3,5,6,11c-hexahydroindolizino[7,8-b]indole]: in test [1], the half-maximal inhibitory concentration (IC50) turned out to be 675 nM. Further, in test [2], the inhibition at 0.1 µM is 92%, the inhibition at 0.3 µM was found to be 97% and the Ki was 4.5 nM.
In test [1], `CC(O)(Cn1c2c(c3cc(Cl)cc(F)c31)C1CCCN1CC2)c1ccncc1` (single isomer, unassigned) [52a] showed an IC50 of 1020 nM. Also, in test [2], the inhibition at 0.1 µM worked out at 80%, the inhibition at 0.3 µM came to 89% and the inhibition constant (Ki) is 13 nM.
Turning to `CC(O)(Cn1c2c(c3cc(F)ccc31)C1CCCN1CC2)c1ccncc1` (single isomer, unassigned) [31a], the concentration for half-maximal inhibition (IC50) in test [1] is 11400 nM. In test [2], the inhibition at 0.1 µM is 33%, the inhibition at 0.3 µM turned out to be 48% and the inhibition constant (Ki) is 279 nM.
Turning to `Cc1ccc2c(c1)c1c(n2CC(O)c2ccncc2F)CCN2CCCC12` (single isomer, unassigned) [14b], the “Percentage inhibition, Adrenergic α2A” value in test [1] (0.1 μM compound, nor-epinephrine at EC80 (270 nM)) was 13%. Also, in test [1] (0.3 μM compound, nor-epinephrine at EC80 (270 nM)), the “Percentage inhibition, Adrenergic α2A” value is reported as 44%. For the same compound, the IC50 in test [1] was 424 nM. Moreover, in test [2], the “Percentage inhibition … (0.1 μM)” value is reported as 80%; the “Percentage inhibition … (0.3 μM)” value was 89%; the Ki is 6.8 nM.
`Cc1ccc2c(c1)c1c(n2CC(C)(O)c2ccnc(F)c2)CCN2CCCC12` (single isomer, unassigned) [48b] displayed a concentration for half-maximal inhibition (IC50) in test [1] of 491 nM. In test [2], the “Percentage inhibition … (0.1 μM)” value is 83%; the “Percentage inhibition … (0.3 μM)” value was 87%; the Ki is 16.4 nM.
In the case of `Cc1ccc2c(c1)c1c(n2CC(OCC2CCC2)c2ccncc2)CCN(C)C1` (single isomer, unassigned) [59a], in test [1], half-maximal inhibition (IC50) was put at 1570 nM. Further, in test [2], the inhibition at 0.1 µM worked out at 84%, the inhibition at 0.3 µM is 91% and the Ki is 10 nM.
`Cc1cc2c3c(n(CC(C)(O)c4ccncc4)c2cc1Cl)CCN1CCCC31` (single isomer, unassigned) [50b] came in with an IC50 in test [1] of 565 nM. In test [2], the “Percentage inhibition … (0.1 μM)” value is 73%; the “Percentage inhibition … (0.3 μM)” value is reported as 86%; the inhibition constant (Ki) is 5.69 nM.
`Cc1cc(C)c2c(c1)c1c(n2CC(C)(O)c2cccnc2)CCN2CCCC12` (single isomer, unassigned) [44b]: in test [1], the IC50 was 909 nM. For the same compound, in test [2], the “Percentage inhibition … (0.1 μM)” value was 89%; the “Percentage inhibition … (0.3 μM)” value was determined as 98%; the Ki is 6.2 nM.
As to `Cc1cc2c3c(n(CC(C)(O)c4ccncc4)c2cc1Cl)CCN1CCCC31` (single isomer, unassigned) [50a], the IC50 in test [1] was found to be 713 nM. For the same compound, in test [2], the inhibition at 0.1 µM came to 72%, the inhibition at 0.3 µM was 83% and the Ki was 6.7 nM.
For `CCCOC(Cn1c2c(c3cc(C)ccc31)CN(C)CC2)c1ccncc1` (single isomer, unassigned) [42a], in that order: 3310 nM, 37%, 63% and 55 nM.
For `Cc1ccc2c(c1)c1c(n2CC(OCC2CCC2)c2ccncc2)CCN2CCCC12` (single isomer, unassigned) [138a], in that order: 413 nM, 91%, 88% and 2.2 nM.
